Key:
GDNF [1] = test: GDNF induction by Compound I aqueous solution in wild-type mice; type: in vivo, mouse; conditions: 3 hours; for GDNF mRNA induction compared to vehicle-treated control: wild type mice; for GDNF protein upregulation compared to untreated control: wildtype mice, vehicle 1.5 fold
Experimental: All animal procedures were performed under general (intraperitoneal ketamine/xylazine) and topical (proparacaine drops) anesthesia. Tropicamide was applied for pupil dilation. After injection, the eye was treated with antibiotic ointment (Bacitracin-Neomycin-Polymyxin). The same procedures were applied to control eyes.
To study GDNF induction by Compound I aqueous solution, 1 ul of 10 uM (n=5) or 100 uM (n=5) water-based Compound I or 1 ul of Vehicle (n=5) was administered intravitreally using beveled glass needle, connected to a Hamilton syringe through polyethylene tubing. During the injection, corneal paracenthesis was performed to reduce intraocular pressure. Compound I was injected into 4-week old wildtype (C57/Bl6, Jackson labs) and rhodopsin knockout (Humphries et al., Nat. Genet. 15, 216-219 (1997)).
Three hours after the injection animals were euthanized using CO2, then the death was confirmed by cervical dislocation. The treated and untreated eyes were enucleated and placed in 250 ul of chilled RNAlater buffer (Qiagen) and stored at 4° C. Later, eyes were excised and total neural retina with retinal pigment epithelium were collected into 400 ul of Lysis buffer (Qiagen RNeasy kit) with 5 mM beta-mercaptoethanol. Total RNA was isolated using RNeasy kit (Qiagen) and eluted with 100 ul of Ultrapure water (Life technologies). All flow through from RNA isolation (˜2.4 ml) was collected and mixed with 10 ml of ice-cold (−20° C.) acetone for protein precipitation. The protein was precipitated at −20° C. for 30 minutes, then pelleted at 3500 rpm for 20 min. Pellets were washed once with 100% ethanol, then reconstituted with 300 ul of RIPA buffer with 0.2 mM 4-benzenesulfonyl fluoride hydrochloride (Tocris). mRNA and protein expression were assessed by qPCR and Western Blot and normalized to GAPDH and βActin. The statistical analysis was performed using a T-test (p<0.05) with Bonferroni post-hoc test.

GDNF mRNA = GDNF mRNA time-course in ARPE19 cells (qPCR); type: cell-based, human; conditions: ARPE19, 100 nM Compound I, normalized by GAPDH and ßActin
Experimental: (§1) GDNF induction […] was assessed using three retinal-specific cell systems: ARPE19, as a model for human retinal pigment epithelium; human retinal progenitor cells (hRPC), as a substitute for human retinal neurons/glia; and mouse eyecups, differentiated from induced pluripotent stem cells. ARPE19 cells are described in Dunn et al., Exp. Eye Res. 62: 155-169, 1996. To study GDNF induction in a human retinal pigment epithelium cell line, ARPE19, thawed ARPE19 cells (passage 33, ATCC) were plated on fibronectin (Akron)-coated plates (Nunc) in stimulation medium at a density of 10 k cells/sq.cm. The flasks were incubated at standard conditions: 37° C., 5% CO2, 100% humidity. Cells were plated 24 hours prior to Compound I treatment and were grown in Ultraculture medium (Lonza), supplemented with 1×MEM NEAA (Gibco), 1× L-glutamine (Gibco), 1× Antibiotic/antimycotic (Gibco), 2 ng/ml bFGF (Peprotech), 1 ng/ml EGF (Peprotech). For qPCR analysis, the experiments were performed in 35 mm Petri dishes in 2 ml of medium with Compound I concentration of 100 nM (DMSO-based solution). Total mRNA was isolated at 0, 15, 30, 60, 120, 240 minutes post stimulation. For protein expression determination by ELISA, the experiments were performed in 96 well plates in 100 ul of medium with each condition (concentrations ranging from 0 to 10 uM) reproduced in 3 wells. […]

GDNF [2] = test: GDNF induction in mouse eyecups differentiated from induced pluripotent stem cells (ELISA); type: cell-based
Experimental: as §1, with “(Peprotech).” for “(Peprotech). For qPCR analysis, the experiments were performed in 35 mm Petri dishes in 2 ml of medium with Compound I concentration of 100 nM (DMSO-based solution). Total mRNA was isolated at 0, 15, 30, 60, 120, 240 minutes post stimulation. For protein expression determination by ELISA, the experiments were performed in 96 well plates in 100 ul of medium with each condition (concentrations ranging from 0 to 10 uM) reproduced in 3 wells.”
To study GDNF induction in retina-like tissue structures, mouse eyecups were differentiated from wild-type mouse induced pluripotent stem cells according to the protocol described previously (Eiraku, M. & Sasai, Y., Nat Protoc 7, 69-79 (2012)). […] The results of dose-dependent GDNF induction were analyzed by ANOVA (p<0.05).

GDNF [3] = test: GDNF induction in human retinal progenitor cells (hRPC) (ELISA); type: cell-based
Experimental: GDNF induction […] was assessed using three retinal-specific cell systems: ARPE19, as a model for human retinal pigment epithelium; human retinal progenitor cells (hRPC), as a substitute for human retinal neurons/glia; and mouse eyecups, differentiated from induced pluripotent stem cells. ARPE19 cells are described in Dunn et al., Exp. Eye Res. 62: 155-169, 1996. To study GDNF induction in a human retinal pigment epithelium cell line, ARPE19, thawed ARPE19 cells (passage 33, ATCC) were plated on fibronectin (Akron)-coated plates (Nunc) in stimulation medium at a density of 10 k cells/sq.cm. The flasks were incubated at standard conditions: 37° C., 5% CO2, 100% humidity. Cells were plated 24 hours prior to Compound I treatment and were grown in Ultraculture medium (Lonza), supplemented with 1×MEM NEAA (Gibco), 1× L-glutamine (Gibco), 1× Antibiotic/antimycotic (Gibco), 2 ng/ml bFGF (Peprotech), 1 ng/ml EGF (Peprotech). For qPCR analysis, the experiments were performed in 35 mm Petri dishes in 2 ml of medium with Compound I concentration of 100 nM (DMSO-based solution). Total mRNA was isolated at 0, 15, 30, 60, 120, 240 minutes post stimulation. For protein expression determination by ELISA, the experiments were performed in 96 well plates in 100 ul of medium with each condition (concentrations ranging from 0 to 10 uM) reproduced in 3 wells. For ELISA analysis, plates were removed from out of incubator 24 hours post stimulation and freeze-thawed followed by CHAPS lysis buffer treatment for total […] extraction. The ELISA analysis for GDNF was performed using GDNF DuoSet kit (R&D systems) using manufacturer's instructions.
Experiments with human retinal progenitor cell line (hRPC) were performed in a similar manner (Baranov et al., Tissue Eng Part A 20, 140124133442001-1475 (2014)): hRPC were thawed and plated (passage 15) in 96 well plates using the same conditions and density as described above for ARPE19. The cell treatment, sample collection and readout were performed using the same protocol. […]

[4] = Pharmacokinetic studies of Compound I sustained release formulation (suspension) in wild-type mice; type: in vivo, mouse; conditions: for Compound I content in the collected vitreoretinal samples / Compound I concentration in the vitreoretinal sample: 2 ul of 60 mg/ml suspension intravitreally; for total Compound I content per eye: suspension intravitreally
Experimental: To profile pharmacokinetics of Compound I after single intravitreal injection, 2 ul of Compound I suspension (60 mg/ml) were administered intravitreally to 3 week old wild-type (C57/Bl6) mice in the same way as described above for the solution. A beveled glass needle connected to a Hamilton syringe through polyethylene tubing was used. During the injection, corneal paracenthesis was performed to reduce intraocular pressure.
For enucleation animals were euthanized at several timepoints after injection: 1 hour (n=5), 1 day (n=3), 2 days (n=3), 7 days (n=3) and 14 days (n=3). The eyes were enucleated and placed in chilled phosphate-buffered saline and kept on ice. The eyes were dissected within 30 minutes post-enucleation: total retina and vitreous were collected into pre-weighed tubes, weighted and snap frozen. For Compound I content in the eye analysis retina and vitreous humor samples were diluted in 0.1% formic acid in 90:10 (v:v) acetonitrile:water before being analyzed for Compound I using an analytical method based on protein precipitation, followed by HPLC/MS/MS analysis. Using a 25 μL aliquot of sample, the lower limit of quantification (LLQ) for Compound I was 1.00 ng/mL. The computer systems that were used on this study to acquire and quantify data included Analyst Version 1.6.1 and SMS2000 version 2.3. The results were analyzed by ANOVA (p<0.05).

[5] = wt mice, 14 days post injection

time drug may be present according to modeling ([4]; single 2 ul intravitreal injection of suspension, modeling): up to 4 weeks
Compound I content in the collected vitreoretinal samples ([4]; wt mice, 1 hour post-injection): 21 ug per milligram of tissue
Compound I concentration in the vitreoretinal sample ([4]; wt mice, 14 days): 5 mg/g tissue
Compound I content in the collected vitreoretinal samples [4, 5]: 5 ug per milligram of tissue
Compound I concentration in the vitreoretinal sample ([4]; wt mice, start of time course (1 hour)): 20 mg/g tissue
time the compound remained in the eye after single intravitreal injection ([4]; wt mice, single 2 ul injection of suspension): at least 2 weeks
total Compound I content per eye ([4]; wt mice, 1 hour post-injection): 80 µg
total Compound I content per eye [4, 5]: 28 µg
Structure (SMILES): COc1cc2c(cc1S(=O)(=O)c1ccc(OCc3ccc(Cl)cc3)cc1)CCN(C)CC2 [Compound I, 7-[4-(4-chloro-benzyloxy)-benzenesulfonyl]-8-methoxy-3-methyl-2,3,4,5-tetrahydro-1H-3-benzazepine]
GDNF mRNA induction compared to vehicle-treated control (GDNF [1]; 1 ul of 10 uM solution intravitreally): 1.3 fold
GDNF mRNA induction compared to vehicle-treated control (GDNF [1]; 1 ul of 100 uM solution intravitreally): 1.9 fold
GDNF protein upregulation compared to untreated control (GDNF [1]; 10 uM solution intravitreally): 2.3 fold
GDNF protein upregulation compared to untreated control (GDNF [1]; 100 uM solution intravitreally): 2.3 fold
time of GDNF mRNA peak after stimulation (GDNF mRNA): 30 min
GDNF induction (GDNF [2]): More than 2 fold
GDNF induction, result in words (GDNF [2]; 0 to 10 uM): Significant dose-dependent GDNF induction
GDNF induction (GDNF [3]): More than 2 fold
GDNF induction, result in words (GDNF [3]; 0 to 10 uM): Significant dose-dependent GDNF induction
concentration of Compound I at which GDNF was upregulated (GDNF [3]; ELISA, FIG. 1B): 1 µM
